Measured values as given in ChEMBL document CHEMBL1201862, “PubChem BioAssay data set” (2004).
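The compound was tested at five concentrations on cells cultured in 96-well plates, with a 48-hour exposure period. Here, GI50 denotes the concentration required for 50% inhibition of growth.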 The source made the active and inactive calls. Rule as the data show it: active = GI50 up to about 1.1 µM and inactive = higher.

Experiments:
Test in all cases: DTP human tumour cell line panel, 48 h
DLD-1 = tested on: DLD-1
DMS-114 = tested on: DMS-114
DMS-273 = tested on: DMS-273
KM-20L2 = tested on: KM-20L2
LXFL 529 = tested on: LXFL 529
M19-MEL = tested on: M19-MEL
RXF 631 = tested on: RXF 631
SNB-78 = tested on: SNB-78
XF498 = tested on: XF498

Measured: GI50

Cc1ccc(NC(=O)CC/C(CC(=O)C(C)(C)C)=N/NC(=O)C(N)=O)cc1C
inactive: DLD-1 > 100 µM | DMS-114 > 100 µM | DMS-273 > 100 µM | KM-20L2 > 100 µM | LXFL 529 > 100 µM | M19-MEL > 100 µM | RXF 631 > 100 µM | SNB-78 > 100 µM | XF498 > 100 µM

O=S1(=O)NN=C(NCc2ccc(Cl)cc2)c2ccccc21
inactive: DLD-1 95.1 µM | DMS-114 > 100 µM | DMS-273 > 100 µM | KM-20L2 > 100 µM | LXFL 529 61.1 µM | M19-MEL > 100 µM | RXF 631 > 100 µM | SNB-78 > 100 µM | XF498 90.6 µM
